Assay results from US5162373A, “Methods and improved formulations for the determination and treatment of malignant disease in patients” (priority 1989, dated 1992).

Columns and labels:
[1] = test system: intestinal epithelium / gut mucosa; test: Trophic/protective effect on intestinal epithelium, other studies; format: in vivo; conditions: doses as high as 20 g/L
[2] = test system: intestinal epithelium / gut mucosa; conditions: cited from earlier work
[3] = test system: tumor putrescine; MCA sarcoma
platelets = conditions: rat, in vivo
[4] = parameters: species or system human (patients with advanced colorectal carcinoma); conditions: human, in vivo
Source text: FIG. 4. Platelet counts plotted against days of continuous i.v. DFMO infusion in patients with advanced colorectal carcinoma. […] The paired points are connected by a straight line.
There was no incidence of nausea, vomiting or diarrhea.

[5] = Toxicity of continuous i.v. DFMO infusion in rats (FIG. 3); format: in vivo, rat; conditions: 12 days; 500-2000 mg/kg/day
Source text: FIG. 3. […] Bars indicate standard deviation.
In the above described rat model, a continuous infusion of DFMO was given through a central venous catheter.

NC(=O)CC[C@H](N)C(=O)O [glutamine, L-glutamine]
trophic effect on intestinal epithelium [1]: trophic effect on intestinal epithelium, especially the ileum
gut epithelium, glutamine added to TPN ([2]; 10-20 g/L): restores gut epithelium
transmucosal migration of bacteria into mesenteric lymph nodes ([2]; compared with glutamine deficient formulas): present transmucosal migration of bacteria into mesenteric lymph nodes
protection of gut mucosa ([2]; oral, rats receiving toxic doses of 5FU or methotrexate): protected the gut mucosa

NCCCC(N)(C(=O)O)C(F)F (stereo not shown) [DFMO, Difluoromethylornithine]
decrease in tumor putrescine levels ([3]; DFMO infusion): 90%
growth of MCA sarcoma ([3]; rat, in vivo): reduces the growth rate of an MCA sarcoma but does not produce tumor regression
peripheral platelet counts ([3]; rat, in vivo): without suppressing peripheral platelet counts
platelet suppression, in words (platelets): significant decrease in platelet count as compared with the saline treatment
White cell count [4]: not affected by either dose
decreased hearing acuity [4]: two patients who experienced decreased hearing acuity
hematocrit [4]: Significant suppression of the hematocrit
nausea, vomiting or diarrhea [4]: no incidence
platelet suppression [4]: significant at both doses
platelet suppression, 8 g vs 6 g dose [4]: significantly greater platelet suppression at the 8 g dose as compared with the 6 g dose
resolution of toxicities after discontinuing infusion [4]: resolved spontaneously within two weeks
clinical toxicity [5]: no significant clinical toxicity

NCCCCN [putrescine]
colonic DNA and protein content ([2]; about 50 micromole/100 gram body weight): increases in colonic DNA and protein content
DNA and RNA content and protein in ileum ([2]; putrescine about 1 micromole): increased DNA and RNA content and protein
mucosal proliferation ([2]; putrescine: intraluminal infusion): stimulation of mucosal proliferation
